In brackets after ≈: the same amount, converted by molar mass. Read-outs that look alike come from different tables or passages of the source.
How the values were obtained:
[1] = system: ML-resistant strain; assay: Antibacterial activity, agar-dilution method (Mueller Hinton agar); assay type: cell-based, Staphylococcus aureus; conditions: macrolide resistant strain; for MIC: Staphylococcus aureus, read-out: minimum inhibitory concentrations (MICs)
Method: (§1) Antibacterial activity of the tylosin derivative of the present invention was determined by the agar- dilution method using a Mueller Hinton agar medium (Difco). The results obtained are summarized in Table 1 in which minimum inhibitory concentrations (MICs, ug/ml) are shown. Hereinafter in the specification, Compound A (the compound described in Example 3) is defined as being 4"-O-[(S)-(+)-p-methoxymandeloyl]tylosin represented by the following formula: [drawing 3] wherein R is the same as that defined above; Compound B (the compound described in Example 2) is defined as being 4"-O-[(R)-(-)-p-methoxymandeloyl]tylosin represented by the following formula: [drawing 4] wherein R is the same as that defined above; XV represents 4"-O-[p-methoxyphenylacetyl]tylosin; RKM represents rokitamycin; and EM represents erythromycin.

[2] = system: Bacillus subtilis ATCC 6633; assay: as above; assay type: cell-based
Method: as §1

[3] = system: Escherichia coli K12; assay: as above; assay type: cell-based; conditions: for MIC: read-out: minimum inhibitory concentrations (MICs)
Method: as §1

[4] = system: Staphylococcus aureus 209P; assay: as above; assay type: cell-based; conditions: for MIC: read-out: minimum inhibitory concentrations (MICs)
Method: as §1

[5] = system: Staphylococcus aureus Smith; assay: as above; assay type: cell-based; conditions: for MIC: read-out: minimum inhibitory concentrations (MICs)
Method: as §1

[6] = system: Staphylococcus epidermidis ATCC 12228; assay: as above; assay type: cell-based; conditions: for MIC: Staphylococcus epidermidis; for minimum inhibitory concentrations (MICs): Staphylococcus epidermidis ATCC 12228
Method: as §1

[7] = Stability test using mouse liver homogenate; assay type: in vitro ADME, ICR mouse; conditions: for Remaining unhydrolyzed substance (%): after being treated with liver homogenate for 60 minutes at 37 C
Method: A liver in collected from an ICR mouse was homogenized by a Potter homogenizer in five times volume of 0.1 M phosphate buffer solution (pH 7.2), and supernatant was obtained by centrifuging the homogenate at 3000 rpm for 10 minutes. To 2 ml of the supernatant obtained above, 2 ml of sample solution containing 500 µg/ml of test compound in 20% aqueous methanol and 1 ml of 0.1 M phosphate buffer solution were added, and the mixture was incubated at 37 ^0 c for 60 minutes and then 1 ml of the mixture was heated at 85 ° C for 3 minutes. The reaction mixture was adjusted to pH 9.0 by adding 1 N NaOH and extracted with 1 ml of ethyl acetate.

[8] = system: Mouse leukemia L1210 cells; assay: Inhibitory activity on the growth of L1210 cells; assay type: cell-based; conditions: for IC50: L1210 cell growth
Method: Mouse leukemia L1210 cells were cultured in RPM11640 medium (Gifco) containing 10% horse serum (Gifco) at 37°C under 5% carbon dioxide gas so that the leukemia cells were contained in the amount of 5 x 10^4 cells/ml, and the cells were subjected to passage culture every two or three days to maintain the cell density of 5 x 10^4 cells/ml. The diluted sample solution (0.1 ml) was added to each well of a 24-well plate which contained 0.9 ml of the cultured L1210 cells, and the mixture was incubated at 37 ° C for 48 hours under 5% carbon dioxide gas. The sample solution mentioned above was prepared by dissolving a weighed test compound in dimethyl sulfoxide (DMSO) at the concentration of 100 mg/ml and then diluting the solution with distilled water so that the concentration became 10 mg/ml. The resulting aqueous solution was diluted with phosphate buffer solution to obtain a sample solution at a desired concentration. After incubation, the cell numbers in each well were counted and inhibitory activity on cell growth (ICso) was calculated.

[9] = system: mouse bone marrow cells; assay: Inhibition of the colony formation of mouse bone marrow cells; assay type: cell-based; conditions: for Number of colonies Average: 1.0 μg/ml (control average 75.3); for Number of colonies 1: count 1 (control 95); for Number of colonies 2: count 2 (control 66); for activity at 1 µg/mL: Mus musculus, Bone marrow cell
[10] = ATCC6633, Bacillus subtilis ATCC 6633, read-out: minimum inhibitory concentrations (MICs)
[11] = ATCC12228, Staphylococcus epidermidis ATCC 12228, read-out: minimum inhibitory concentrations (MICs)
[12] = 1.0 μg/ml, relative to control = 100

Row | Molecule | MIC ([1]; 1st listed (Table 1 r5)) | MIC ([1]; 2nd listed (Table 1 r6)) | MIC ([1]; 3rd listed (Table 1 r7)) | MIC ([1]; 4th listed (Table 1 r8)) | minimum inhibitory concentrations (MICs) ([1]; 5th listed (Table 1 r9)) | MIC [2, 10] | MIC [3] | MIC ([4]; Staphylococcus aureus 209P) | MIC ([5]; Staphylococcus aureus Smith) | MIC [6, 11] | Inhibitory activity on cell growth (%) ([8]; 10 μg/ml, 48 hours) | Number of colonies Average [9] | Number of colonies 1 ([9]; 1.0 μg/ml) | Number of colonies 2 ([9]; 1.0 μg/ml) | activity at 1 µg/mL [9, 12] | minimum inhibitory concentrations (MICs) ([1]; 1st listed (Table 1 r5)) | minimum inhibitory concentrations (MICs) ([1]; 2nd listed (Table 1 r6)) | minimum inhibitory concentrations (MICs) ([1]; 3rd listed (Table 1 r7)) | minimum inhibitory concentrations (MICs) ([1]; 4th listed (Table 1 r8)) | minimum inhibitory concentrations (MICs) ([2]; Bacillus subtilis ATCC 6633) | other results
1 | CCC1OC(=O)CC(O)C(C)C(OC2OC(C)C(OC3CC(C)(O)C(OC(=O)C(O)c4ccc(OC)cc4)C(C)O3)C(N(C)C)C2O)C(CC=O)CC(C)C(=O)C=CC(C)=CC1COC1OC(C)C(O)C(OC)C1OC [Compound A, 4"-O-[(S)-(+)-p-methoxymandeloyl]tylosin] | 6.25 µg/mL (≈ 5.79 µM) | 0.39 µg/mL (≈ 0.361 µM) | 6.25 µg/mL (≈ 5.79 µM) | < 0.2 µg/mL | 6.25 µg/mL (≈ 5.79 µM) | 0.39 µg/mL (≈ 0.361 µM) | > 100 µg/mL | 0.39 µg/mL (≈ 0.361 µM) | 1.56 µg/mL (≈ 1.44 µM) | 0.39 µg/mL (≈ 0.361 µM) | 5.62% | 31.0 | 32 | 30 | 41.2% |  |  |  |  |  | remaining at 1 h ([7]; mouse, liver homogenate, pH 7.2, after being treated with liver homogenate for 60 minutes at 37 C, read-out: Remaining unhydrolyzed substance (%)): 97.8%; inhibition at 1 µg/mL ([8]; Mus musculus, L1210, 48 h, 1 μg/ml, read-out: Inhibitory activity on cell growth (%)): 0%; inhibition at 3 µg/mL ([8]; Mus musculus, L1210, 48 h, 3 μg/ml, read-out: Inhibitory activity on cell growth (%)): 0%; inhibition at 30 µg/mL ([8]; Mus musculus, L1210, 48 h, 30 μg/ml, read-out: Inhibitory activity on cell growth (%)): 47.8%; inhibition at 100 µg/mL ([8]; Mus musculus, L1210, 48 h, 100 μg/ml, read-out: Inhibitory activity on cell growth (%)): 88.8%; IC50 ([8]; Mus musculus, L1210, 48 h, read-out: IC50): 36.6 µg/mL (≈ 33.9 µM)
2 | 4"-O-[p-methoxyphenylacetyl]tylosin [XV] |  |  |  |  | 1.56 µg/mL |  |  |  |  |  | 82.87% | 13.0 | 13 |  |  | 6.25 µg/mL | 0.78 µg/mL | 3.13 µg/mL | 0.39 µg/mL | 0.39 µg/mL | minimum inhibitory concentrations (MICs) [3]: > 100 µg/mL; minimum inhibitory concentrations (MICs) ([4]; Staphylococcus aureus 209P): 0.20 µg/mL; minimum inhibitory concentrations (MICs) ([5]; Staphylococcus aureus Smith): 1.56 µg/mL; minimum inhibitory concentrations (MICs) [6]: 0.78 µg/mL; Remaining unhydrolyzed substance (%) [7]: 92.8%; Inhibitory activity on cell growth (%) ([8]; 1 μg/ml, 48 hours): 12.22%; Inhibitory activity on cell growth (%) ([8]; 3 μg/ml, 48 hours): 31.18%; Inhibitory activity on cell growth (%) ([8]; 30 μg/ml, 48 hours): 90.45%; Inhibitory activity on cell growth (%) ([8]; 100 μg/ml, 48 hours): 93.68%; IC50 ([8]; 48 hours): 5.01 µg/mL; Colony formation (%) [9, 12]: 17.3%
3 | CCC1OC(=O)CC(O)C(C)C(OC2OC(C)C(OC3CC(C)(O)C(OC(=O)C(O)c4ccc(OC)cc4)C(C)O3)C(N(C)C)C2O)C(CC=O)CC(C)C(=O)C=CC(C)=CC1COC1OC(C)C(O)C(OC)C1OC [Compound B, 4"-O-[(R)-(-)-p-methoxymandeloyl]tylosin] |  |  |  |  | 1.56 µg/mL (≈ 1.44 µM) |  |  |  |  |  | 13.48% | 29.5 | 34 | 25 |  | 6.25 µg/mL (≈ 5.79 µM) | 0.39 µg/mL (≈ 0.361 µM) | 3.13 µg/mL (≈ 2.9 µM) | < 0.20 µg/mL | 0.39 µg/mL (≈ 0.361 µM) | minimum inhibitory concentrations (MICs) [3]: > 100 µg/mL; minimum inhibitory concentrations (MICs) ([4]; Staphylococcus aureus 209P): 0.39 µg/mL (≈ 0.361 µM); minimum inhibitory concentrations (MICs) ([5]; Staphylococcus aureus Smith): 1.56 µg/mL (≈ 1.44 µM); minimum inhibitory concentrations (MICs) [6]: 0.78 µg/mL (≈ 0.722 µM); Remaining unhydrolyzed substance (%) ([7]; 60 min): 100%; Inhibitory activity on cell growth (%) ([8]; 1 μg/ml, 48 hours): 0%; Inhibitory activity on cell growth (%) ([8]; 3 μg/ml, 48 hours): 0%; Inhibitory activity on cell growth (%) ([8]; 30 μg/ml, 48 hours): 41.43%; Inhibitory activity on cell growth (%) ([8]; 100 μg/ml, 48 hours): 87.22%; IC50 ([8]; 48 hours): 32.99 µg/mL (≈ 30.5 µM)
4 | CCCC(=O)O[C@H]1[C@H](C)O[C@@H](O[C@H]2[C@H](N(C)C)[C@@H](O)[C@H](O[C@H]3[C@@H](CC=O)C[C@@H](C)[C@@H](O)/C=C/C=C/C[C@@H](C)OC(=O)C[C@@H](O)[C@@H]3OC)O[C@@H]2C)C[C@@]1(C)OC(=O)CC [RKM, rokitamycin] | > 100 µg/mL | > 100 µg/mL | > 100 µg/mL | < 0.2 µg/mL |  | 0.1 µg/mL (≈ 0.121 µM) | 100 µg/mL (≈ 121 µM) | 0.2 µg/mL (≈ 0.242 µM) | 0.39 µg/mL (≈ 0.471 µM) | < 0.2 µg/mL |  | 19.0 |  |  | 25.2% |  |  |  |  |  | MIC ([1]; 5th listed (Table 1 r9)): > 100 µg/mL; Number of colonies 3 ([9]; 1.0 μg/ml, count 3 (control 65)): 19
5 | CC[C@H]1OC(=O)[C@H](C)[C@@H](O[C@H]2C[C@@](C)(OC)[C@@H](O)[C@H](C)O2)[C@H](C)[C@@H](O[C@@H]2O[C@H](C)C[C@H](N(C)C)[C@H]2O)[C@](C)(O)C[C@@H](C)C(=O)[C@H](C)[C@@H](O)[C@]1(C)O [EM, erythromycin] | > 100 µg/mL | > 100 µg/mL | > 100 µg/mL | > 100 µg/mL |  |  | 50 µg/mL (≈ 68.1 µM) |  |  |  |  |  |  |  |  |  |  |  |  |  | MIC ([1]; 5th listed (Table 1 r9)): > 100 µg/mL; MIC ([2]; Bacillus subtilis, ATCC6633, read-out: minimum inhibitory concentrations (MICs)): 0.1 µg/mL (≈ 0.136 µM); MIC ([4]; Staphylococcus aureus, 209P): 0.1 µg/mL (≈ 0.136 µM); MIC ([5]; Staphylococcus aureus): 0.2 µg/mL (≈ 0.273 µM); MIC ([6]; ATCC12228, read-out: minimum inhibitory concentrations (MICs)): < 0.2 µg/mL

— patent publication EP0482594A1, “Tylosin derivative and method for preparing the same” (MERCIAN CORPORATION, priority 1990, dated 1992)
